How the values were obtained:
[1] = tested on: slow skeletal muscle troponin; conditions: cited from earlier work
patients with ALS [2] = experiment: BENEFIT-ALS clinical trial: Maximum Voluntary Ventilation (MVV); format: in vivo, human
Method: (§1) BENEFIT-ALS was a multi-national, randomized, stratified, double-blind, placebo-controlled, parallel-group study of tirasemtiv in patients with ALS. The study consisted of a screening period, an open-label/lead-in period, and a double-blind treatment period. Following screening, eligible patients received open-label tirasemtiv, 125 mg BID, for 7 days. Patients who tolerated the 7-day lead-in period were randomized in a 1:1 ratio to tirasemtiv or placebo. Over the first 3 weeks of double-blind treatment, patients randomized to tirasemtiv had their TDD up-titrated as follows: 250 mg for 7 days, then 375 mg for 7 days, then 500 mg for 7 days. […] However, in such cases, dose escalation was re-attempted at least one additional time. The highest tolerable tirasemtiv dose for each individual patient was the dose that patient received for the remaining 9 weeks (i.e., the maximum tolerated dose [MTD] phase) of the study. Patients randomized to placebo underwent a corresponding dummy dose titration.
(§2) Randomization was stratified by riluzole use. […] Clinical assessments occurred every 4 weeks during double-blind treatment; patients also returned for follow-up evaluations at 1 and 4 weeks after their final dose of double-blind study medication (FIG. 1).
(§3) The secondary objectives included assessments of the effect of tirasemtiv versus placebo on measures of respiratory function (Maximum Voluntary Ventilation (MVV), Sniff Nasal Inspiratory Pressure (SNIP), SVC) and skeletal muscle function including handgrip fatigue and muscle-strength mega-score (i.e., the average z-score for muscle strength measurements across the following tested bilateral muscle groups: elbow flexion, wrist extension, knee extension, ankle dorsiflexion, and handgrip)). Secondary endpoints included the changes from baseline in each of the above mentioned measures (MVV, SNIP, SVC, and muscle-strength mega-score) for the Modified FAS, and the slope of each of the measures from baseline to Week 12 for the Modified FAS.
(§4) Eligible patients were males and females, 18 years of age and older, with a diagnosis of familial or sporadic ALS and meeting the World Federation of Neurology El Escorial criteria of definite ALS, probable ALS, laboratory-supported probable ALS, or possible ALS. Patients were to have an upright SVC>50% of predicted for age, height, and sex, a diminished, but measurable, maximum voluntary grip strength in at least one hand (i.e., between 10-50 pounds for females and 10-70 pounds for males), and at least 4 of the 12 ALSFRS-R questions were to have been scored as a 2 or 3. Patients were to be able to swallow tablets without crushing, and in the opinion of the investigator, were expected to do so for the duration of the study. If the patient needed a caregiver, the caregiver was to be able to observe the patient's status. Clinical laboratory results were to be either within their respective normal ranges or if outside the normal range, deemed not clinically significant by the investigator. […] Patients not taking riluzole prior to study entry were not permitted to take riluzole at any dose during the course of the study.
(§5) Safety data presented were based on the safety analysis set, defined as all patients who received at least 1 dose of double-blind study drug. Of the 605 randomized patients, 596 (295 placebo, 301 tirasemtiv) received at least 1 dose of double-blind study drug and were included in the safety analysis set. Data for the primary and secondary efficacy endpoints were analyzed with the Modified FAS. This analysis set included all patients who received at least 1 dose of double-blind study drug and had at least 1 efficacy assessment during the double-blind treatment period, and excluded 156 patients who were randomized in blocks containing patients affected by a study drug assignment error in which 58 patients randomized to and treated with double-blind tirasemtiv were dispensed double-blind placebo instead. […]

muscle = conditions: other model systems; cited from earlier work
patients with ALS [3] = experiment: BENEFIT-ALS clinical trial: handgrip fatigue at 60% of target in the weaker hand; format: in vivo, human
Method: as §1, §2, §3, §4, §5

patients with ALS [4] = experiment: BENEFIT-ALS clinical trial: slow vital capacity (SVC); format: in vivo, human
Method: as §1, §2, §3, §4, §5

[5] = tested on: fast skeletal muscle troponin complex; conditions: cited from earlier work
CYP 1A2 = biological target: T1, CYP 1A2 (Homo sapiens, UniProt P05177); conditions: cited from earlier work
T1 sequence (P05177 1-516): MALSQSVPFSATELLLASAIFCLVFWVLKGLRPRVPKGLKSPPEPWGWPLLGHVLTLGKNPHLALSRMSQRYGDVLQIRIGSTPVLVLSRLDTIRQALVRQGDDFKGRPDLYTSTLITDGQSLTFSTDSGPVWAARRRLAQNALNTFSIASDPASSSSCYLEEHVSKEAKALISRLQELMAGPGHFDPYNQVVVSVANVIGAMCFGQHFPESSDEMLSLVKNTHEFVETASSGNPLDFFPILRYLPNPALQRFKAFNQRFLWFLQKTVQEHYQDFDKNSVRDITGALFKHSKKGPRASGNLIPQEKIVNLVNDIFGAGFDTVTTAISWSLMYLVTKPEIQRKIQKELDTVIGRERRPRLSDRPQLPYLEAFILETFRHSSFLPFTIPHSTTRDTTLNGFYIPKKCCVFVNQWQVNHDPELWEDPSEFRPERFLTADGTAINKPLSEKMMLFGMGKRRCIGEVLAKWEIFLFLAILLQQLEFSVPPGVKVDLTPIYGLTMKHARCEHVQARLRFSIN

patients with ALS [6] = experiment: BENEFIT-ALS clinical trial: Sniff Nasal Inspiratory Pressure (SNIP); format: in vivo, human
Method: as §1, §2, §3, §4, §5

cardiac muscle troponin = conditions: cited from earlier work

C#Cc1cnc2nc(O)n(C(CC)CC)c2n1 [Tirasemtiv, 6-ethynyl-1-(pentan-3-yl)-1H-imidazo[4,5-b]pyrazin-2(3H)one]
Effect on slow skeletal muscle troponin [1]: little effect
MVV slope from baseline to Week 12 (patients with ALS [2]; Modified FAS N=178): −0.0567
MVV change from baseline (LS mean) (patients with ALS [2]; Week 4, Modified FAS N=178): -2.89 L/min
MVV change from baseline (LS mean) (patients with ALS [2]; Week 8, Modified FAS N=178): -2.14 L/min
MVV change from baseline (LS mean) (patients with ALS [2]; Week 12, Modified FAS N=178): -5.45 L/min
MVV versus placebo, in words (patients with ALS [2]; human, in vivo): no statistically significant difference between treatment groups
MVV difference in slope (tirasemtiv vs placebo) (patients with ALS [2]; p=0.8799): 0.0044
Fatigability of muscle (muscle): decreased fatigability of muscle
Muscle power (muscle): increased muscle power
Handgrip fatigue slope from baseline to Week 12 (patients with ALS [3]; Modified FAS N=178): 0.0458
Handgrip fatigue at 60% of target in the weaker hand, change from baseline (LS mean) (patients with ALS [3]; Week 4, Modified FAS N=178): -1.77 s
Handgrip fatigue at 60% of target in the weaker hand, change from baseline (LS mean) (patients with ALS [3]; Week 8, Modified FAS N=178): 4.60 s
Handgrip fatigue at 60% of target in the weaker hand, change from baseline (LS mean) (patients with ALS [3]; Week 12, Modified FAS N=178): -0.57 s
Handgrip fatigue versus placebo, in words (patients with ALS [3]; human, in vivo): no statistically significant difference between treatment groups
Handgrip fatigue difference in slope (tirasemtiv vs placebo) (patients with ALS [3]; p=0.6372): 0.0332
SVC slope of changes from baseline to Week 12 (patients with ALS [4]; Modified FAS N=178): −0.0394
SVC change from baseline (LS mean) (patients with ALS [4]; Week 4, Modified FAS N=178): −0.99 % predicted
SVC change from baseline (LS mean) (patients with ALS [4]; Week 8, Modified FAS N=178): −2.85 % predicted
SVC change from baseline (LS mean) (patients with ALS [4]; Week 12, Modified FAS N=178): −3.12 % predicted
SVC change from baseline (LS mean), post-treatment (patients with ALS [4]; Week 13, 1 week after last dose of double-blind study drug): −3.75 % predicted
SVC change from baseline (LS mean), post-treatment (patients with ALS [4]; Week 16, 4 weeks after last dose of double-blind study drug): −5.39 % predicted
LS mean±SE change from baseline in SVC (patients with ALS [4]; after 12 weeks of treatment): −3.12%
SVC difference in slope (tirasemtiv vs placebo) (patients with ALS [4]; baseline to Week 12, p=0.0006): 0.051
Treatment difference in change from baseline to average SVC after 8 and 12 weeks (patients with ALS [4]; subgroup: baseline SVC>median at baseline, p<0.0001): 6.02%
Treatment difference in change from baseline to average SVC after 8 and 12 weeks (patients with ALS [4]; subgroup: females, p=0.012): 6.84%
Treatment difference in change from baseline to average SVC after 8 and 12 weeks (patients with ALS [4]; subgroup: non-riluzole users, p=0.0005): 6.55%
Effect on decline of SVC, in words (patients with ALS [4]; versus placebo): statistically significant and potentially clinically meaningful reduction in the decline of SVC
Activity on fast skeletal muscle troponin complex [5]: highly selective activator
Rate of calcium release from fast skeletal TnC [5]: slows the rate of calcium release
Effect on CYP 1A2 (CYP 1A2): inhibited
SNIP slope from baseline to Week 12 (patients with ALS [6]; Modified FAS N=178): −0.053
SNIP change from baseline (LS mean) (patients with ALS [6]; Week 4, Modified FAS N=178): −4.33 cm H2O
SNIP change from baseline (LS mean) (patients with ALS [6]; Week 8, Modified FAS N=178): −3.55 cm H2O
SNIP change from baseline (LS mean) (patients with ALS [6]; Week 12, Modified FAS N=178): −5.03 cm H2O
SNIP versus placebo, in words (patients with ALS [6]; p=0.012 and 0.050): statistically significantly greater decrease in SNIP at Weeks 4 and 8
SNIP difference in slope (tirasemtiv vs placebo) (patients with ALS [6]; p=0.2108): −0.0312
Effect on cardiac muscle troponin (cardiac muscle troponin): no effect

From patent publication US20170042890A1, “METHODS OF REDUCING DECLINE IN VITAL CAPACITY” (Cytokinetics, Inc., priority 2014, published 2017)
